Assays:
[1] = molecular target: T1, Carnitine O-palmitoyltransferase 1, liver isoform (Homo sapiens, UniProt P50416); experiment: Inhibition of human CPT1A expressed in Saccharomyces cerevisiae mitochondria assessed as palmitoylcarnitine by HPLC method
T1 sequence (P50416 whole entry): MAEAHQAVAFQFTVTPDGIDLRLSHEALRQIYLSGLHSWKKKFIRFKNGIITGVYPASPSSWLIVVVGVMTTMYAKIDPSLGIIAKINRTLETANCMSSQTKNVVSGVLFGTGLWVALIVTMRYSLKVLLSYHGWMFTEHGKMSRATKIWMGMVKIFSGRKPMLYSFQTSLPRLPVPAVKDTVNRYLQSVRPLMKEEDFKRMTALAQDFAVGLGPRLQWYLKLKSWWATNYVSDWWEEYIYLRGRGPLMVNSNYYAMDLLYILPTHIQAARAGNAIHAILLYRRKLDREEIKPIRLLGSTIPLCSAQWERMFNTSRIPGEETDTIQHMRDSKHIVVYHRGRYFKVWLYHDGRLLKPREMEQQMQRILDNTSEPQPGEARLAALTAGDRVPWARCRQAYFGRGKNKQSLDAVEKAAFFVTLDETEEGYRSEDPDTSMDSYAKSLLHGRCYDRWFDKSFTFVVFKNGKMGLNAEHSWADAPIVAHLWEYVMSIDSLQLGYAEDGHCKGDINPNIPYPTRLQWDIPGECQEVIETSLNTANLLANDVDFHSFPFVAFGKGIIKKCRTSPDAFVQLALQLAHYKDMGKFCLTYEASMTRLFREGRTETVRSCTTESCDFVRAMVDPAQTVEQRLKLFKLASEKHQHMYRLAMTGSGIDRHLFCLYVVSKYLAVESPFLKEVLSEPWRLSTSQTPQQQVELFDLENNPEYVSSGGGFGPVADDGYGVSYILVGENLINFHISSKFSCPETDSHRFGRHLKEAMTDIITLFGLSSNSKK

[2] = molecular target: T2, Carnitine O-palmitoyltransferase 2, mitochondrial (Rattus norvegicus, UniProt P18886); experiment: Inhibition of rat CPT2 using [3H]carnitine by radiometric assay
T2 sequence (P18886 whole entry): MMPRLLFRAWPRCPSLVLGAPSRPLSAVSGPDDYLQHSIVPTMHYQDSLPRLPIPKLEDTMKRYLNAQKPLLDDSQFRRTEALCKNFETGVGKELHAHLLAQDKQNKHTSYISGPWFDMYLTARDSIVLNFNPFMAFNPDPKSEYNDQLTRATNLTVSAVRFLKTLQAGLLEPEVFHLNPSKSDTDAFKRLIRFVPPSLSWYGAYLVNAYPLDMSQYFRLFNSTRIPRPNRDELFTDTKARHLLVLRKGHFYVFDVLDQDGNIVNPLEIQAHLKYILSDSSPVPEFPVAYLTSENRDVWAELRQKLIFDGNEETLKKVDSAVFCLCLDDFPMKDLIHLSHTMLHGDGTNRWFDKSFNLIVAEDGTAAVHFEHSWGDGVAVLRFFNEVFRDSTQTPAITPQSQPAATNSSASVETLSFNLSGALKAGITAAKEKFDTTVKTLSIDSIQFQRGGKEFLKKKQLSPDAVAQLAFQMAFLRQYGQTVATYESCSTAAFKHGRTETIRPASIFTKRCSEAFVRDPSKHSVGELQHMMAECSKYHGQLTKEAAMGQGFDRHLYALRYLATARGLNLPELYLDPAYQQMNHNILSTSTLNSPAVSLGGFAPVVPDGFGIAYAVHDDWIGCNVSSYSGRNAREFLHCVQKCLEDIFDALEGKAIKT

[3] = molecular target: T3, Carnitine O-palmitoyltransferase 1, liver isoform (Rattus norvegicus, UniProt P32198); experiment: Inhibition of rat CPT1A using [3H]carnitine by radiometric assay
T3 sequence (P32198 whole entry): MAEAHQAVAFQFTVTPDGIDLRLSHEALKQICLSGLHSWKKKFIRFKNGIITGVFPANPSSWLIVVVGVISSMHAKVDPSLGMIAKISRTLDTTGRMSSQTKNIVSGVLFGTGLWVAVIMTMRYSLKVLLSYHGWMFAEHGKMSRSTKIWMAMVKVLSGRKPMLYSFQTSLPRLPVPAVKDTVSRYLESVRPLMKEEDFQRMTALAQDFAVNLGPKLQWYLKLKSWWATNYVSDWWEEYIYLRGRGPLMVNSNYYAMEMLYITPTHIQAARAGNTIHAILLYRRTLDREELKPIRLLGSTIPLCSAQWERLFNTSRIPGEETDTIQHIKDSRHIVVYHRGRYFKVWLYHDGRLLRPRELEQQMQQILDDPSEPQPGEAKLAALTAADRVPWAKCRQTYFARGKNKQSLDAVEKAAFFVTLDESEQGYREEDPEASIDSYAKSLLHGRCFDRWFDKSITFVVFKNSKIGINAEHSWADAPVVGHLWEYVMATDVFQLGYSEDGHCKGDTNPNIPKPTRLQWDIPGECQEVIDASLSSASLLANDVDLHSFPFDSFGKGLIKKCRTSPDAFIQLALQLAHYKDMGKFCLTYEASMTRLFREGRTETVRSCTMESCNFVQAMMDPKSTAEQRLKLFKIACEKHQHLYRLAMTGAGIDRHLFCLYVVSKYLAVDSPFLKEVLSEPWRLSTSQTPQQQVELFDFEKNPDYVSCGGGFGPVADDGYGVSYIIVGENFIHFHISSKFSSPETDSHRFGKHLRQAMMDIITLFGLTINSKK

[4] = molecular target: T4, Carnitine O-palmitoyltransferase 1, muscle isoform (Homo sapiens, UniProt Q92523); experiment: Inhibition of human CPT1B
T4 sequence (Q92523 whole entry): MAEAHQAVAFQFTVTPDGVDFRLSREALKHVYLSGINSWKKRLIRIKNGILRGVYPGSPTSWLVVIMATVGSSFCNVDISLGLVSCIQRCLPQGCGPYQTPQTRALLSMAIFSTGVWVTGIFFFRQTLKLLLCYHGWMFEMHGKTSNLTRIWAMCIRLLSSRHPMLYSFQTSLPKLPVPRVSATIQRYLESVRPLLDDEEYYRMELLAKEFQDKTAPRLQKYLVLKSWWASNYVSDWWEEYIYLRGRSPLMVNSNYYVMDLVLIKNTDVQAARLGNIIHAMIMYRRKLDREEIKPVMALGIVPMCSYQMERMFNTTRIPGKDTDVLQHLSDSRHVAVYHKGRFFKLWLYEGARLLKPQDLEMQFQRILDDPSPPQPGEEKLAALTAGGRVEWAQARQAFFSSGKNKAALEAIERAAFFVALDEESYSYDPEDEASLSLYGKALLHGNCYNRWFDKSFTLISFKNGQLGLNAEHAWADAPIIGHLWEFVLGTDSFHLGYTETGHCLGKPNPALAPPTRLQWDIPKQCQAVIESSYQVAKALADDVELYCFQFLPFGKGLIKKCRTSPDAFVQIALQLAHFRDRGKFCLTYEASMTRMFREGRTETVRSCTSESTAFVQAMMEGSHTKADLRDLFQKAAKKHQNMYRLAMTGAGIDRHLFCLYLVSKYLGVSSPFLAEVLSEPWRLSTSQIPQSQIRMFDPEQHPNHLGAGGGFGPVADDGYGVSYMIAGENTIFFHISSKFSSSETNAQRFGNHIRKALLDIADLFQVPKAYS

[5] = molecular target: T1, Carnitine O-palmitoyltransferase 1, liver isoform; experiment: Inhibition of human CPT1A
[6] = molecular target: T2, Carnitine O-palmitoyltransferase 2, mitochondrial; experiment: Inhibition of rat CPT2
[7] = molecular target: T5, Mitochondrial carnitine/acylcarnitine carrier protein (Homo sapiens, UniProt O43772); experiment: Inhibition of CACT
T5 sequence (O43772 whole entry): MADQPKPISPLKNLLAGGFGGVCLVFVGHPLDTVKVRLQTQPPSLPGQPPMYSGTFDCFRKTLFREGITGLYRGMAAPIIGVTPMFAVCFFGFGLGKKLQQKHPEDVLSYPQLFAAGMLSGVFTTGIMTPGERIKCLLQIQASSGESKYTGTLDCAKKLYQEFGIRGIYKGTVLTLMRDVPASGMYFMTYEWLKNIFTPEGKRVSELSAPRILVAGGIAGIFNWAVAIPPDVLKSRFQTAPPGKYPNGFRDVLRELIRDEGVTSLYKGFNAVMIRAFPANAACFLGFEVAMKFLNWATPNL

[8] = molecular target: T6, Carnitine O-palmitoyltransferase 2, mitochondrial (Homo sapiens, UniProt P23786); experiment: Inhibition of human CPT2
T6 sequence (P23786 whole entry): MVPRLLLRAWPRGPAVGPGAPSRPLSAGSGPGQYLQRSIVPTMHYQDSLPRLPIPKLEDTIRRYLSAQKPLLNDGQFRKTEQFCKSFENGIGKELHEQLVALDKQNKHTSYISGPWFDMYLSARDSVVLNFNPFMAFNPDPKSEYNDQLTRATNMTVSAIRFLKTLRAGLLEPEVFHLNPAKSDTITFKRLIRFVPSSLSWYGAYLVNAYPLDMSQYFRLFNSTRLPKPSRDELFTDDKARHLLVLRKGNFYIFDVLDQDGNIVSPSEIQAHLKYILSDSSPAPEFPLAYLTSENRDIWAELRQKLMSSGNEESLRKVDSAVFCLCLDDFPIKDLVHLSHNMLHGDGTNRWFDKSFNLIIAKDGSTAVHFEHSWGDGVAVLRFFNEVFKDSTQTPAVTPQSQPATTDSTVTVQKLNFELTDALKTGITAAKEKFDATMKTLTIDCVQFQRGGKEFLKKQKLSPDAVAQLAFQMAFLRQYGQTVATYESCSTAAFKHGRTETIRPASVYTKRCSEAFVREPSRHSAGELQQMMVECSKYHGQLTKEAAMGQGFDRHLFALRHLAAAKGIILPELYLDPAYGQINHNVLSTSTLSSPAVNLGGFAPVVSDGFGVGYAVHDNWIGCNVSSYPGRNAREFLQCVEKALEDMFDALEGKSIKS

[9] = Toxicity in po dosed Sprague-Dawley rat assessed as hypoglycemic coma; type: organism-based; details: in vivo
[10] = test system: Rattus norvegicus; experiment: Reduction in blood glucose in po dosed Sprague-Dawley rat; type: functional
[11] = test system: Rattus norvegicus; experiment: Reduction in blood glucose in Sprague-Dawley rat at 600 umol/kg, po; type: functional; set-up: scale not given: the % may be the effect or the level left
[12] = Inhibition of rat FAO
[13] = Inhibition of human FAO
[14] = Inhibition of carnitine palmitoyltransferase in rat heart mitochondria assessed as conversion of [14C]palmitic acid to [14C]palmitoylcarnitine by radiometric assay
[15] = Inhibition of carnitine palmitoyltransferase in rat liver mitochondria assessed as conversion of [14C]palmitic acid to [14C]palmitoylcarnitine by radiometric assay
[16] = test system: Mus musculus; experiment: Reduction in glucose level in db/db mouse at 30 mg/kgl/day, po for 12 days; type: functional; set-up: scale not given: the % may be the effect or the level left; details: dose 30 mg/kg
[17] = Critical micelle concentration of compound; type: physicochemical

Structure (SMILES): CCCCCc1ccc(S(=O)(=O)NC2(CC(=O)[O-])CCC[N+](C)(C)C2)cc1 (stereo not drawn)
- IC50 [1]: < 1 µM

Structure (SMILES): CCCCCCCCCCCCCCCC1(O)C[N+](C)(C)CC(CC(=O)[O-])O1 (stereo in doubt; (+)-27)
- IC50 [2]: 47.5 µM
- IC50 [3]: 38.5 µM

Structure (SMILES): O=C(NCc1cccs1)c1nn(Cc2cccc(C(F)(F)F)c2)c2ccccc12
- IC50 [4]: > 100 µM
- IC50 [5]: 0.026 µM
- IC50 [6]: > 100 µM

Structure (SMILES): O=C(O)c1ccc(NC(=O)c2cccc(NS(=O)(=O)c3ccc(Cl)c(Cl)c3)c2)cc1
- IC50 [4]: 6.4 µM
- IC50 [6]: 28.5 µM

Structure (SMILES): CCCCCCCCCC(=O)O[C@@H](CC(=O)[O-])C[N+](C)(C)C
- IC50 [7]: 5 µM

Structure (SMILES): COc1ccc(Cl)cc1S(=O)(=O)N1CC(C(=O)O)Oc2ccc(C(=O)Nc3cccc(F)c3)cc21 (stereo not drawn)
- IC50 [4]: 3.4 µM
- IC50 [8]: > 100 µM
- IC50 [6]: > 100 µM

Structure (SMILES): CCOC(=O)C1(CCCCCc2ccc(Cl)cc2)CO1 (racemic)
- LD50 [9]: 275 mg/kg
- ED50 [10]: 6 mg/kg
- Activity [11]: 80%

Structure (SMILES): CCCCCCCC[C@H]1OC(=O)C(C)=C1C(=O)O
- IC50 [12]: > 100 µM
- IC50 [13]: 77 µM

Structure (SMILES): CCCCCCCCCCCCCCCC(=O)O[C@@H](CC(=O)[O-])C[N+](C)(C)C
- IC50 [7]: 35 µM

Structure (SMILES): CCCCCCOc1cccc(OCCCCNC(=O)N[C@H](CC(=O)[O-])C[P+](C)(C)C)c1
- IC50 [14]: 57.3 µM
- IC50 [15]: 0.12 µM
- Activity [16]: 30%
- CMC [17]: 0.55 mM

Structure (SMILES): CCCCCc1ccc(S(=O)(=O)NC2(CC(=O)[O-])CC[N+](C)(C)CC2)cc1
- IC50 [1]: < 1 µM

Reference: ChEMBL document CHEMBL2216752, “Carnitine palmitoyltransferase (CPT) modulators: a medicinal chemistry perspective on 35 years of research” (J Med Chem, 2011)
